Several values for one entry are separate records, joined by “and”; a condition that tells them apart may be missing. Equal entries are not always repeated.
Test system: 786-0 complex spheroid viability
Assay: Anticancer human tumor 786-0 cell line growth inhibition;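 further: spheroids exposed to agents for seven days before readout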
Conditions: for viability, T/C: stronger effect = lower value
Excerpt: Multicellular complex tumor spheroid response to LSD1 Inhibitor Iadademstat in combination with a variety of drugs and investigational agents in selected tumor cell lines
The current study was undertaken to assess response to LSD1 inhibitors in combination with standard-of-care drugs and investigational agents in solid tumor complex spheroid models as well as in the K-562 leukemia. Complex spheroids include a stromal component modeled by human endothelial cells (HUVEC) and fibroblasts modeled by human mesenchymal stem cells (MSCs). The concentration ranges selected for each drug and investigational agent were based upon clinically achievable concentrations if the clinical Cmax of the agent was known.
Compounds. The drugs and investigational agents used in this study are listed on Table 1. All of the agents used, including staurosporine (NSC755774) and gemcitabine (NSC613327), were obtained from the Developmental Therapeutics Program, NCI. FDA-approved anticancer drugs are available from the NCI at http://dtp.nci.nih.gov/branches/dscb/oncology_drugset_explanation.html. Drugs and investigational agents were >95% pure by proton nuclear magnetic resonance (NMR) and liquid chromatography/mass spectrometry (LC/MS). Stock solutions were prepared at 400x in DMSO, stored at -70 degrees C, and diluted in fresh medium prior to their use. The final concentration of DMSO in cell culture wells never exceeded 0.25% (v/v). The FDA-approved anticancer drug set is available from the Developmental Therapeutics Program at https://dtp.cancer.gov/organization/dscb/obtaining/available_plates.htm. All drugs and investigational agents were tested over a range starting from a high concentration at or near the clinical Cmax and decreasing in half-log increments. If the clinical Cmax for an agent had not been determined, the highest concentration tested was 10 microM.
Cell Lines. The patient-derived cancer cell (PDC) lines: 292921-168-R-J2-PDC, K24384-001-R-PDC, and 521955-158-R2-J5-PDC pancreatic carcinomas, 556581-035-R-J1 ovarian carcinoma, 324938-238-R-J1-PDC, 855422-203-R-J1-PDC and 883617-216-R-J1-PDC urothelial bladder carcinomas, 743489-274-T-PDC renal cell carcinoma, 138582-R-J1 Merkel cell tumor, K60290-347-R-J1 and K57222-313-R-J1-PDC glioblastomas, 653999-131-R-J2-PDC, LG0703-F948-PDC, and 349418-098-R-PDC non-small cell lung carcinomas, 885512-296-R-J2-PDC, 171881-019-R-J1-PDC breast carcinomas and 186277-243-T-J2-PDC and 233499-124-R-J2-PDC colon carcinomas were obtained from the NCI Patient-Derived Models Repository (PDMR, https://pdmr.cancer.gov). The established cell lines NCI/ADR-RES (RRID:CVCL_14520 and OVCAR-5 (RRID:CVCL_1628) ovarian carcinomas, 786-O (RRID:CVCL_1051) and A498 (RRID:CVCL_A498) renal cell carcinoma, NCI-H211 (ATCC, cat. CRL-5824; RRID:CVCL_1529), NCI-H196 (ATCC, cat. CRL-5823, RRID:CVCL_1509), SW 1271 (ATCC, cat. CRL-2177, RRID:CVCL_1716) and NCI-H1876 (ATCC, cat. CRL-5902, RRID:CVCL_1503) small cell lung carcinomas, MDA-MB-231 (RRID:CVCL_0062) and MDA-MB-468 (RRID:CVCL_0419)breast carcinomas (10-12). Pooled donor human umbilical vein endothelial cells (HUVEC, Lonza, cat. CC-2519) and human mesenchymal stem cells (hMSC, Lonza, cat. PT-2501) were purchased from Lonza (Walkersville, MD).
Cell Culture. All cells were maintained in an incubator at 37 degrees C and 5% CO2 with 95% humidity. The PDC lines were cultured according to standard operating procedures established by the NCI PDMR (https://pdmr.cancer.gov). Briefly all PDCs were thawed and cultured in Matrigel-coated flasks prepared with a working solution of 1X Ham's F-12 nutrient mix, without supplementation (Invitrogen, Waltham, MA, cat. 11765054), 100 U/mL penicillin-streptomycin (Invitrogen, cat. 15140122), and 2.5% Matrigel (Corning Inc., Corning, NY, cat. 354248) for the first three passages. […]

[1] = curve of first compound, second compound 0.1 µM
[2] = curve of first compound, second compound 0.316 µM
[3] = curve of first compound, second compound 1 µM
[4] = curve of first compound, second compound 3.16 µM
[5] = curve of first compound, second compound 10 µM

Work on CCN(c1cc(-c2ccc(CN3CCOCC3)cc2)cc(C(=O)NCc2c(C)cc(C)[nH]c2=O)c1C)C1CCOCC1 + NC1CC1c1ccc(-c2cccc(O)c2)cc1 yielded an IC50 [1] greater than 3 µM, an IC50 [2] greater than 3 µM and an IC50 [3] greater than 3 µM. For the same molecule, the IC50 [4] was greater than 3 µM, the IC50 [5] was greater than 3 µM and the viability, T/C (second compound 0.1 µM, first compound 0.00949 µM) was 99.5%. It also gave a viability, T/C (second compound 0.1 µM, first compound 0.03 µM) of 101%, a viability, T/C (second compound 0.1 µM, first compound 0.0949 µM) of 98.7% and a viability, T/C (second compound 0.1 µM, first compound 0.3 µM) of 94.3%. It also gave a viability, T/C (second compound 0.1 µM, first compound 0.949 µM) of 95.7%, a viability, T/C (second compound 0.1 µM, first compound 3 µM) of 96.2% and a viability, T/C (second compound 0.316 µM, first compound 0.00949 µM) of 104%. The viability, T/C (second compound 0.316 µM, first compound 0.03 µM) was 105%, the viability, T/C (second compound 0.316 µM, first compound 0.0949 µM) was 107% and the viability, T/C (second compound 0.316 µM, first compound 0.3 µM) was 103%. The viability, T/C (second compound 0.316 µM, first compound 0.949 µM) was 97.6%, the viability, T/C (second compound 0.316 µM, first compound 3 µM) was 94.8% and the viability, T/C (second compound 1 µM, first compound 0.00949 µM) was 98.8%. The viability, T/C (second compound 1 µM, first compound 0.03 µM) was 101%, the viability, T/C (second compound 1 µM, first compound 0.0949 µM) was 99.3% and the viability, T/C (second compound 1 µM, first compound 0.3 µM) was 102%. The viability, T/C (second compound 1 µM, first compound 0.949 µM) was 84.8%, the viability, T/C (second compound 1 µM, first compound 3 µM) was 86% and the viability, T/C (second compound 3.16 µM, first compound 0.00949 µM) was 88.6%. For the same molecule, the viability, T/C (second compound 3.16 µM, first compound 0.03 µM) was 97.7%, the viability, T/C (second compound 3.16 µM, first compound 0.0949 µM) was 95.3% and the viability, T/C (second compound 3.16 µM, first compound 0.3 µM) was 96.8%. The viability, T/C (second compound 3.16 µM, first compound 0.949 µM) was 84.4%, the viability, T/C (second compound 3.16 µM, first compound 3 µM) was 86.3% and the viability, T/C (second compound 10 µM, first compound 0.00949 µM) was 87.8%. For the same molecule, the viability, T/C (second compound 10 µM, first compound 0.03 µM) was 87%, the viability, T/C (second compound 10 µM, first compound 0.0949 µM) was 85.5% and the viability, T/C (second compound 10 µM, first compound 0.3 µM) was 87.3%. It also gave a viability, T/C (second compound 10 µM, first compound 0.949 µM) of 80.4% and a viability, T/C (second compound 10 µM, first compound 3 µM) of 83%.

O=C(c1cc(Cc2n[nH]c(=O)c3ccccc23)ccc1F)N1CCN(C(=O)C2CC2)CC1 was tested, and the viability, T/C (compound 0.0316 µM) was 103%, the viability, T/C (compound 0.1 µM) was 103% and the viability, T/C (compound 0.316 µM) was 104% and 103%. For the same molecule, the viability, T/C (compound 1 µM) was 96.8% and 102%, the viability, T/C (compound 3.16 µM) was 85% and 97% and the viability, T/C (compound 10 µM) was 61.8% and 74.5%. It also gave an IC50 (curve of compound) greater than 10 µM.

With CC[C@@]1(O)C(=O)OCc2c1cc1n(c2=O)Cc2cc3c(CN(C)C)c(O)ccc3nc2-1 the viability, T/C (compound 0.000316 µM) was 103% and 99.7%, the viability, T/C (compound 0.001 µM) was 96.7% and 96.5% and the viability, T/C (compound 0.00316 µM) was 65.8% and 70.9%. The viability, T/C (compound 0.01 µM) was 15.6% and 24.7%, the viability, T/C (compound 0.0316 µM) was 9.17% and 10.9% and the viability, T/C (compound 0.1 µM) was 4.15% and 4.08%. The IC50 (curve of compound) was 0.00454 µM and 0.00535 µM.

With O=C(c1cc(Cc2n[nH]c(=O)c3ccccc23)ccc1F)N1CCN(C(=O)C2CC2)CC1 + NC1CC1c1ccc(-c2cccc(O)c2)cc1 the IC50 [1] was greater than 10 µM, the IC50 [2] was greater than 10 µM and the IC50 [3] was greater than 10 µM. It also gave an IC50 [4] greater than 10 µM, an IC50 [5] greater than 10 µM and a viability, T/C (second compound 0.1 µM, first compound 0.0316 µM) of 111%. For the same molecule, the viability, T/C (second compound 0.1 µM, first compound 0.1 µM) was 119%, the viability, T/C (second compound 0.1 µM, first compound 0.316 µM) was 107% and the viability, T/C (second compound 0.1 µM, first compound 1 µM) was 105%. For the same molecule, the viability, T/C (second compound 0.1 µM, first compound 3.16 µM) was 97.6%, the viability, T/C (second compound 0.1 µM, first compound 10 µM) was 80.8% and the viability, T/C (second compound 0.316 µM, first compound 0.0316 µM) was 112%. It also gave a viability, T/C (second compound 0.316 µM, first compound 0.1 µM) of 112%, a viability, T/C (second compound 0.316 µM, first compound 0.316 µM) of 112% and a viability, T/C (second compound 0.316 µM, first compound 1 µM) of 109%. It also gave a viability, T/C (second compound 0.316 µM, first compound 3.16 µM) of 98.8%, a viability, T/C (second compound 0.316 µM, first compound 10 µM) of 81.1% and a viability, T/C (second compound 1 µM, first compound 0.0316 µM) of 111%. For the same molecule, the viability, T/C (second compound 1 µM, first compound 0.1 µM) was 110%, the viability, T/C (second compound 1 µM, first compound 0.316 µM) was 113% and the viability, T/C (second compound 1 µM, first compound 1 µM) was 108%. It also gave a viability, T/C (second compound 1 µM, first compound 3.16 µM) of 93.3%, a viability, T/C (second compound 1 µM, first compound 10 µM) of 78.6% and a viability, T/C (second compound 3.16 µM, first compound 0.0316 µM) of 103%. It also gave a viability, T/C (second compound 3.16 µM, first compound 0.1 µM) of 105%, a viability, T/C (second compound 3.16 µM, first compound 0.316 µM) of 103% and a viability, T/C (second compound 3.16 µM, first compound 1 µM) of 97.5%. The viability, T/C (second compound 3.16 µM, first compound 3.16 µM) was 85.9%, the viability, T/C (second compound 3.16 µM, first compound 10 µM) was 68.4% and the viability, T/C (second compound 10 µM, first compound 0.0316 µM) was 97.3%. For the same molecule, the viability, T/C (second compound 10 µM, first compound 0.1 µM) was 98.8%, the viability, T/C (second compound 10 µM, first compound 0.316 µM) was 89.3% and the viability, T/C (second compound 10 µM, first compound 1 µM) was 90.7%. The viability, T/C (second compound 10 µM, first compound 3.16 µM) was 72.8% and the viability, T/C (second compound 10 µM, first compound 10 µM) was 52.9%.

For COc1cc(Nc2ncc3c(n2)-c2ccc(Cl)cc2C(c2c(F)cccc2OC)=NC3)ccc1C(=O)O, the viability, T/C (compound 0.00316 µM) was 109% and 97.4%, the viability, T/C (compound 0.01 µM) was 90.9% and 98.9% and the viability, T/C (compound 0.0316 µM) was 67.5% and 84.2%. For the same molecule, the viability, T/C (compound 0.1 µM) was 66.5% and 68.7%, the viability, T/C (compound 0.316 µM) was 54.4% and 56% and the viability, T/C (compound 1 µM) was 37.1% and 44.9%. The IC50 (curve of compound) was 0.329 µM and 0.565 µM.

— PubChem BioAssay AID1918944 (Molecular Pharmacology Branch, DTP, NCI, 2023)
